System in one data set: not listed separately
Nature of the data set: Baboon brain entry study (PET time-activity curves). It is filed as in vivo. Conditions: 40 kg baboon, 8 mCi intravenously, PET brain imaging over 2 h post injection. As for the experimental part: A 40 kg baboon was anesthesized, immobilized, and placed on a ventilator. The baboon was positioned in a PET scanner to image the brain, and a transmission scan was performed to correct for attenuation. The baboon was injected intravenously with a solution containing 8 mCi of [F-18]-6-Methoxy-2-(4′-fluorophenyl)benzothiazole, and the brain was imaged in a series of increasing data collection time bins over 2 h post injection. Following data acquisition, the images were reconstructed and regions of interest were drawn. Decay and […] corrected time-activity curves (TAC) were generated for each of the regions to determine the quantitative time course of radioactivity in each brain region.
T1 sequence (P05067 672-711): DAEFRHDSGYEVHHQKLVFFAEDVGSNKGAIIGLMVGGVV
`COc1ccc2nc(-c3ccc([18F])cc3)sc2c1` [[F-18]-6-Methoxy-2-(4′-fluorophenyl)benzothiazole]: the “brain penetration of the radiotracer” value is recorded as “excellent brain penetration” and the “clearance of radioactivity from normal baboon brain” value was “rapid clearance”.

The next data set has as its target T1, synthetic Aβ(1-40) (Homo sapiens, UniProt P05067).
T1 construct: analyzed, using synthetic Aβ(1-40)
Nature of the data set: Competition of [3H]BTA-1 binding from synthetic Aβ(1-40). Conditions: in vitro, aggregated amyloid. As for the experimental part: The characteristics of benzothiazole derivative binding were analyzed, using synthetic Aβ(1-40) and 2-(4′-[^3H]methylamino-phenyl)-benzothiazole ([^3H]BTA-1) in phosphate-buffered saline (pH 7.4), as previously described. Klunk et al., Life Sci. 69:1471 (2001); Mathis et al., Bioorg. Med. Chem. Lett. 12: 295 (2002).
The characteristics of benzothiazole derivative binding were analyzed using synthetic Aβ(1-40) and 2-(4′ [^3H]methylamino-phenyl)-benzothiazole ([^3H]BTA-1) in phosphate-buffered saline (pH 7.4), as previously described. Klunk et al., Life Sci. 69:1471 (2001); Mathis et al., Bioorg. Med. Chem. Lett., 12:295 (2002). The table below lists the inhibition constants (Ki) of exemplary benzothiazole compounds shown for competition of [^3H]BTA-1 binding from synthetic Aβ(1-40).
Consider `COc1ccc2nc(-c3ccc([18F])cc3)sc2c1` [[F-18]-6-Methoxy-2-(4′-fluorophenyl)benzothiazole], for which the “affinity of the ligand in vitro for aggregated amyloid” value was “relatively high affinity”.

Still in this data set, the particulars now being: inhibition constant for competition of [3H]BTA-1 binding from synthetic Aβ(1-40), phosphate-buffered saline pH 7.4.
In general, Ki refers to a measure of affinity in units of concentration, obtained from inhibition or displacement. Low readings indicate a stronger hold on the target, high ones a looser hold on the target. `COc1ccc2sc(-c3ccc(F)cc3)nc2c1` displayed a Ki of 13.5 nM.

On to `CNc1ccc2nc(-c3ccc(F)cc3)sc2c1`, for which the Ki is 7.4 nM.

Turning to `COc1ccc2nc(-c3ccc(F)cc3O)sc2c1`, the Ki worked out at 1.1 nM.

Consider `COc1ccc2nc(-c3ccc(F)cc3)sc2c1`, for which the Ki is 6 nM.

For `COc1ccc2sc(-c3ccc(F)cc3)nc2c1OC`, affinity was put at a Ki of 81.2 nM.

As to `COc1cc(OC)c2nc(-c3ccc(F)cc3)sc2c1`, the Ki amounted to 116 nM.

With `COc1ccc(OC)c2sc(-c3ccc(F)cc3)nc12`, the affinity corresponds to a Ki of 334 nM.

Compound `COc1cccc2sc(-c3ccc(F)cc3)nc12` displayed a Ki of 608 nM.

`Oc1cccc2sc(-c3ccc(F)cc3)nc12`: affinity was put at a Ki of 381 nM. Compared with the last compound, the Ki is about 1.6-fold lower.

The compound `COc1cc2nc(-c3ccc(F)cc3)sc2cc1OC` returned a Ki of 88.3 nM. This Ki lies about 4.3-fold lower than the previous one.

With `COc1cc(OC)c2sc(-c3ccc(F)cc3)nc2c1`, the affinity corresponds to a Ki of 33.5 nM.

Take `Oc1ccc2sc(-c3ccc(F)cc3)nc2c1`: the affinity corresponds to a Ki of 504 nM.

Compound `COc1cc(O)c2nc(-c3ccc(F)cc3)sc2c1` displayed a Ki of 51.6 nM. This Ki lies about 9.8-fold lower than the previous one.

`COc1ccc2nc(-c3ccc(F)cc3OC)sc2c1`: the Ki came to 16.6 nM. Compared with the last compound, the Ki is about 3.1-fold lower.

Turning to `COc1ccc2nc(-c3ccc(F)c(F)c3)sc2c1`, the Ki came to 154 nM.

With `N#Cc1ccc2nc(-c3ccc(F)cc3)sc2c1`, the affinity corresponds to a Ki of 133 nM. This Ki and that of the compound before are within 1.5-fold of each other.

The compound `FCCOc1ccc2nc(-c3ccc(F)cc3)sc2c1` came in with a Ki of 9.8 nM.

`FCCCOc1ccc2nc(-c3ccc(F)cc3)sc2c1` showed a Ki of 27.2 nM.

In turn, `CS(=O)(=O)c1ccc2nc(-c3ccc(F)cc3)sc2c1` returned a Ki of 1270 nM.

Take `Nc1ccc2nc(-c3ccc(F)cc3)sc2c1`: the Ki stood at 84.8 nM.

Take `Nc1cc(F)ccc1-c1nc2ccc(O)cc2s1`: the Ki turned out to be 14.8 nM.

The compound `Oc1ccc2nc(-c3ccc(F)cc3O)sc2c1` had a Ki of 31.3 nM.

`Oc1ccc2nc(-c3ccc(F)c(F)c3)sc2c1` returned a Ki of 18.9 nM.

`Oc1ccc2nc(-c3ccc(F)c(Cl)c3)sc2c1` yielded a Ki of 130 nM.

`Oc1ccc2nc(-c3ccc(CF)cc3)sc2c1` yielded a Ki of 46.6 nM.

On to `OCc1ccc(-c2nc3ccc(O)cc3s2)cc1`, for which the Ki stood at 311 nM.

Consider `Oc1ccc2nc(-c3ccc(F)cc3)sc2c1`, for which the Ki was found to be 180 nM.

As for `COc1cccc2nc(-c3ccc(F)cc3)sc12`, the Ki stood at 14.9 nM.

For the compound `Oc1cccc2nc(-c3ccc(F)cc3)sc12`, the affinity, expressed as Ki, was 186 nM.

For `Nc1cc(F)ccc1-c1nc2ccccc2s1`, the Ki amounted to 4.9 nM.

In the case of `Nc1ccccc1-c1nc2ccccc2s1`, the Ki came to 19.6 nM.

Compound `O=[N+]([O-])c1cc(F)ccc1-c1nc2ccccc2s1` yielded a Ki of 811 nM.

Compound `Brc1ccc(-c2nc3ccccc3s2)cc1` displayed a Ki of 8.8 nM. Against the preceding compound, the Ki is about 92-fold lower.

In turn, `Cc1ccc(-c2nc3ccccc3s2)cc1` yielded a Ki of 19.1 nM.

On to `Fc1ccc(-c2nc3ccccc3s2)cc1`, for which the Ki is 43.8 nM.

Take `Ic1ccc(-c2nc3ccccc3s2)cc1`: the affinity corresponds to a Ki of 2.6 nM.

Turning to `Nc1c(F)c(F)c(-c2nc3ccc(O)cc3s2)c(F)c1F`, affinity was put at a Ki of 1000 nM. This Ki lies about 380-fold higher than the previous one.

Turning to `COc1ccc2nc(-c3c(F)c(F)c(N)c(F)c3F)sc2c1`, affinity was put at a Ki of 119 nM.

Regarding `CNc1c(F)c(F)c(-c2nc3ccc(O)cc3s2)c(F)c1F`, the affinity corresponds to a Ki of 273 nM.

Regarding `CNc1c(F)c(F)c(-c2nc3ccc(OC)cc3s2)c(F)c1F`, the Ki is 26 nM.

Compound `Nc1ccc(F)cc1-c1nc2ccc(O)cc2s1` registered a Ki of 21.8 nM.

In turn, `Nc1cccc(F)c1-c1nc2ccc(O)cc2s1` gave a Ki of 14 nM.

With `Nc1c(F)cccc1-c1nc2ccc(O)cc2s1`, the Ki was 3.1 nM.

On to `COc1ccc(-c2nc3ccc(N(C)C)cc3s2)cc1`, for which the affinity corresponds to a Ki of 1.3 nM.

Consider `CNc1ccc2nc(-c3ccc(OC)cc3)sc2c1`, for which affinity was put at a Ki of 1.8 nM.

As for `CN(C)c1ccc2nc(-c3ccc(O)cc3)sc2c1`, the Ki was 10.7 nM.

With `CNc1ccc(-c2nc3ccc(OCCOCCOCCF)cc3s2)cc1`, the affinity, expressed as Ki, was 4.9 nM.

As to `CNc1c(F)cccc1-c1nc2ccc(O)cc2s1`, the Ki was 46 nM.

On to `CNc1cc(F)ccc1-c1nc2ccc(O)cc2s1`, for which the affinity corresponds to a Ki of 48.8 nM.

In turn, `CNc1ccc(-c2nc3ccc(O)cc3s2)c(N)c1` returned a Ki of 5.4 nM.

In turn, `CNc1cc(N)ccc1-c1nc2ccc(O)cc2s1` gave a Ki of 94.9 nM.

As to `CNc1ccc(-c2nc3ccccc3s2)cc1CCCF`, affinity was put at a Ki of 76.9 nM.

The compound `CNc1ccc2nc(-c3ccc(O)cc3F)sc2c1` returned a Ki of 1.2 nM.

Take `CNc1ccc2nc(-c3ccc(O)c(F)c3)sc2c1`: the Ki was found to be 5.3 nM.

For the origin of these results see patent US20090142269A1, “ISOTOYPICALLY-LABELED BENZOTHIAZOLE COMPOUNDS AS IMAGING AGENTS FOR AMYLOIDOGENIC PROTEINS” (UNIVERSITY OF OITTSBURGH-OF THE COMMONWEALTH SYSTEM OF …, priority 2005, published 2009).
